We go through eleven molecules from patent US5254590A, “Acylaminophenol compounds” (Adir et Compagnie, priority 1991, dated 1993).

One may read the inhibition as the share of the control response that was lost under treatment. Broadly, the IC50 is the concentration that inhibits the measured activity by half. Low values mean higher potency, high ones lower potency.

The target of assay [1] is T1, acyl CoA-cholesterol-acyl transferase (ACAT) (Mus musculus, UniProt Q61263).
T1 construct: in the presence of a macrophage J 774 homogenate; endogenous in cells; host or cells: J774 macrophage line
T1 sequence (Q61263 1-540): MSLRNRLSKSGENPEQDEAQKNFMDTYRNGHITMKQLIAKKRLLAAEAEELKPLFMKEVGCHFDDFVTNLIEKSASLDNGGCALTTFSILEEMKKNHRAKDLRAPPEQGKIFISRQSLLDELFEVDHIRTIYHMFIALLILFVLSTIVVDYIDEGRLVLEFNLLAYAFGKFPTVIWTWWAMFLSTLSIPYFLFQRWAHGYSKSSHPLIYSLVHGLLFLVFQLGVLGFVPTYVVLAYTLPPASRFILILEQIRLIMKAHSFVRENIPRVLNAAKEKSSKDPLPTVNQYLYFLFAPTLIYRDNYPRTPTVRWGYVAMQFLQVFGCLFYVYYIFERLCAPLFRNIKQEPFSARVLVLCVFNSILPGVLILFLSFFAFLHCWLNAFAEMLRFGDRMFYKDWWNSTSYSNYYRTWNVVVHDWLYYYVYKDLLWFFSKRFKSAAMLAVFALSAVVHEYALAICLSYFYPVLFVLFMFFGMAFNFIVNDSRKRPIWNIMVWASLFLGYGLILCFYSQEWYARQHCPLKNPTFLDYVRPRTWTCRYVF
Put plainly: Determination of ACAT: inhibition of esterification of free intracellular cholesterol in macrophage line J 774. Particulars: J774; macrophage line J 774, 24 hours, 10^-5 M, relative to placebo; read-out: percentage inhibition of ACAT activity of the macrophages. The assay is classed as cell-based. On the procedure:
The test products or the placebo are incubated in the presence of the macrophages for 24 hours at the concentration of 10^-5 M. The efficacy of these compounds is evaluated by calculating the ACAT activity of the macrophages incubated in the presence of a product relative to that of macrophages incubated in the presence of the placebo and is therefore expressed as a percentage inhibition.

The next assay concerns human LDLs. The assay is described as follows: Modification of the LDLs by copper sulfate (MDA production, lipid peroxidation). The assay is classed as biochemical. The settings on record: 24 hours, copper sulfate 5×10^-6 M; probucol as reference. On the procedure:
The human LDLs are incubated for 24 hours in the presence of copper sulfate (5×10^-6 M) with or without the test compounds (concentrations between 10^-7 M and 10^-4 M). After incubation, the peroxidation of the LDLs is evaluated by electrophoresis on agar gel and by the formation of one of the products of lipid peroxidation: malondialdehyde (MDA) according to the technique described by […] et al. (J. Clin. Invest. 77, 641-644, 1986).

Assay [2] deals with T1, acyl CoA-cholesterol-acyl transferase (ACAT). The assay is described as follows: Determination of ACAT: inhibition of esterification of free intracellular cholesterol in macrophage line J 774. The assay is classed as cell-based.
In assay [3] the test system is hypercholesterolemic hamsters. Put plainly: Effect in hypercholesterolemic hamsters (total plasma cholesterol). The assay is classed as in vivo, Syrian golden hamsters. The settings on record: orally, 10 mg/kg/day. On the procedure: Syrian golden hamsters were subjected to a 0.2% hypercholesterolemic diet for 3 weeks. They were then treated orally either by the vehicle for the compounds tested (control group), or by a reference product, or by an original product at the dose of 10 mg/kg/day for 2 weeks. At the end of the treatment, the total cholesterol was measured in the plasma.

Regarding `CCCCC/C=C\C/C=C\CCCCCCC(C)C(=O)Nc1cc(C)c(O)c(C)c1C` (stereo not drawn) [Example 58, 2,3,6-Trimethyl-4-(2-methyl-9,12-octadecadienamido)phenol, cis, cis isomer], the inhibition at 10 µM in assay [1] came out at 97%.

Regarding `CCCCCC=CCC=CCC=CCCCCC(=O)Nc1cc(C)c(O)c(C)c1C` [Example 23, 2,3,6-Trimethyl-4-(6,9,12-octadecatrienamido)phenol], the inhibition at 10 µM in assay [1] worked out at 94%.

Take `CCCCCCCCCC(C)C(=O)Nc1cc(C)c(O)c(C)c1C` (stereo not drawn) [Example 4, 2,3,6-Trimethyl-4-(2-methylundecanamido)phenol]: the inhibition at 10 µM in assay [1] was found to be 91%.

On to `CCCCC/C=C\C/C=C\CCCCCCCC(=O)Nc1cc(C)c(O)c(C)c1C` [Example 21, 2,3,6-Trimethyl-4-(9,12-octadecadienamido)phenol cis, cis isomer], for which, in assay [1], the inhibition at 10 µM is 90%.

With `CCCCCCCCCCC(C)(C)C(=O)Nc1c(OC)cc(OC)cc1OC` [Ref. 2, 2,4,6-trimethoxy-(2,2-dimethyldodecanamido)benzene], in the assay on human LDLs, the “antioxidant activity towards human LDLs (in words)” value is recorded as “completely lack this activity”.

`CCCCCCCCCCC(C)(C)C(=O)Nc1cc(C)c(O)c(C)c1C` [Example 15, 2,3,6-Trimethyl-4-(2,2-dimethyldodecanamido)phenol]: the inhibition at 10 µM in assay [1] stood at 93%.

As for `CCCCCCCCCC(C)(C)C(=O)Nc1cc(C)c(O)c(C)c1C` [Example 14, 2,3,6-Trimethyl-4-(2,2-dimethylundecanamido)phenol], in assay [1], the inhibition at 10 µM was found to be 92%.

With `CCCCCCCCCCCC(C)(C)C(=O)Nc1cc(C)c(O)c(C)c1C` [Example 16, 2,3,6-Trimethyl-4-(2,2-dimethyltridecanamido)phenol], the inhibition at 10 µM in assay [1] is 96%.

For `CCCCCCCCCCC1(C(=O)Nc2cc(C)c(O)c(C)c2C)CCCC1` [Example 57, 2,3,6-Trimethyl-4-[(1-decyl-cyclopent-1-yl)carboxamido]phenol], the inhibition at 10 µM in assay [1] was 98%.

Consider `CCCCCCCC/C=C\CCCCCCCC(=O)Nc1c(OC)cc(OC)cc1OC` [Ref. 1, 2,4,6-trimethoxy-(9-(Z)octadecenamido)benzene], for which half-maximal inhibition in assay [2] (IC50) was put at 3 µM. For the same molecule, the inhibition at 10 µM in assay [1] amounted to 75%. Further, the “antioxidant activity towards human LDLs (in words)” value in the assay on human LDLs is recorded as “completely lack this activity”.

As to `CCCCCCCC/C=C\CCCCCCC(C)C(=O)Nc1cc(C)c(O)c(C)c1C` (stereo not drawn) [Example 20, 2,3,6-Trimethyl-4-(2-methyl-9-octadecenamido)phenol cis isomer], the inhibition at 10 µM in assay [1] amounted to 95%. For the same molecule, in assay [3] (15 days (2 weeks), 0.2% hypercholesterolemic diet), the “hypocholesterolemiant activity, level of total plasma cholesterol” value is listed as “normalizes the level of cholesterol in the hypercholesterolemic animals”. In addition, the “hypocholesterolemiant activity compared with reference products (Ref. 1 and Ref. 2)” value in assay [3] (same conditions) is reported as “considerably higher than that of the reference products tested”.
